Legend:
CYP3A4 = assay: Induction in cultured human hepatocytes (CYP3A4 activity and mRNA); type: in vitro ADME; conditions: relative to compound E / other thiophene analogues
[1] = Stability in human and rat microsomes; type: in vitro ADME; conditions: human and rat hepatic microsomes; relative to compound E / other thiophene analogues
Procedure: Incubations containing no NADPH and no UDPGA are used as controls. The compounds are incubated at 50 uM for 0 and 60 minutes. The reaction is stopped by the addition of an equal volume of acetonitrile. The mixture is centrifuged and the supernatant is analyzed by HPLC/UV or MS/MS. The percentage parent remaining corresponds to the area of the parent compound in the 60-minute incubation versus the area of the parent compound in a 0-minute incubation ×100.

[2] = test system: HCV replicon cells (Huh-7 ET cells); type: cell-based, human; conditions: Ratio of CC50/IC50 in HCV replicon cells (Huh-7 ET cells); average TI when tested more than once

CO[C@H]1CC[C@H](N(c2cc(C#CC(C)(C)C)sc2C(=O)O)C(=O)[C@H]2CC[C@H](C)CC2)CC1 [Compound 2, 5-(3,3-DIMETHYL-BUT-1-YNYL)-3-[(TRANS-4-METHOXY-CYCLOHEXYL)-(TRANS-4-METHYL-CYCLOHEXANECARBONYL)-AMINO]-THIOPHENE-2-CARBOXYLIC ACID]
induction profile in human hepatocytes (CYP3A4): better | microsome stability profile [1]: better | TI [2]: +++ (+++: 1000-2000)

CC1CCC(C(=O)N(c2cc(-c3ccccc3)sc2C(=O)O)C2CCC(F)CC2)CC1 (stereo not shown) [H, reference compound]
TI [2]: + (+: <100)

CC(C)(C)C#Cc1cc(N(C(=O)[C@H]2CC[C@H](C)CC2)[C@H]2CC[C@@H](O)CC2)c(C(=O)O)s1 [Compound 5, 5-(3,3-DIMETHYL-BUT-1-YNYL)-3-[(CIS-4-HYDROXY-CYCLOHEXYL)-(TRANS-4-METHYL-CYCLOHEXANECARBONYL)-AMINO]-THIOPHENE-2-CARBOXYLIC ACID]
TI [2]: ++++++ (++++++: >6000)

CC1CCC(C(=O)N(c2cc(-c3ccccc3)sc2C(=O)O)C2CCC(O)CC2)CC1 (stereo not shown) [B, reference compound]
TI [2]: ++ (++: 100-1000)

CC(C)(C)C#Cc1cc(N(C(=O)[C@H]2CC[C@H](C)CC2)[C@H]2CC[C@H](n3ccnn3)CC2)c(C(=O)O)s1 [Compound 8, 5-(3,3-DIMETHYL-BUT-1-YNYL)-3-[(TRANS-4-METHYL-CYCLOHEXANECARBONYL)-(TRANS-4-[1,2,3]TRIAZOL-1-YL-CYCLOHEXYL)-AMINO]-THIOPHENE-2-CARBOXYLIC ACID]
TI [2]: ++++++ (++++++: >6000)

CC1CCC(C(=O)N(c2cc(C#CC(C)(C)C)sc2C(=O)O)C2CCC(n3ccnn3)CC2)CC1 (stereo not drawn) [Compound 7, 5-(3,3-DIMETHYL-BUT-1-YNYL)-3-[(TRANS-4-METHYL-CYCLOHEXANECARBONYL)-(4-CIS-[1,2,3]TRIAZOL-1-YL-CYCLOHEXYL)-AMINO]-THIOPHENE-2-CARBOXYLIC ACID]
TI [2]: +++++ (+++++: 4000-6000)

CC(C)(C)C#Cc1cc(N(C(=O)[C@H]2CC[C@H](C)CC2)[C@H]2CC[C@@H](n3cncn3)CC2)c(C(=O)O)s1 [Compound 3, 5-(3,3-DIMETHYL-BUT-1-YNYL)-3-[(TRANS-4-METHYL-CYCLOHEXANECARBONYL)-(CIS-4-[1,2,4]TRIAZOL-1-YL-CYCLOHEXYL)-AMINO]-THIOPHENE-2-CARBOXYLIC ACID]
TI [2]: ++++++ (++++++: >6000)

CC(C)(C)C#Cc1cc(N(C(=O)[C@H]2CC[C@H](C)CC2)[C@H]2CC[C@H](O)CC2)c(C(=O)O)s1 [Compound 1, 5-(3,3-DIMETHYL-BUT-1-YNYL)-3-[(TRANS-4-HYDROXY-CYCLOHEXYL)-(TRANS-4-METHYL-CYCLOHEXANECARBONYL)-AMINO]-THIOPHENE-2-CARBOXYLIC ACID]
induction profile in human hepatocytes (CYP3A4): better | microsome stability profile [1]: better | TI [2]: ++++++ (++++++: >6000)

CC1CCC(C(=O)N(c2cc(-c3ccccc3)sc2C(=O)O)C2CCC(n3ccnn3)CC2)CC1 (stereo not shown) [F, reference compound]
TI [2]: ++ (++: 100-1000)

CC(C)(C)C#Cc1cc(N(C(=O)[C@H]2CC[C@H](C)CC2)[C@H]2CC[C@H](n3cncn3)CC2)c(C(=O)O)s1 [Compound 4, 5-(3,3-DIMETHYL-BUT-1-YNYL)-3-[(TRANS-4-METHYL-CYCLOHEXANECARBONYL)-(TRANS-4-[1,2,4]TRIAZOL-1-YL-CYCLOHEXYL)-AMINO]-THIOPHENE-2-CARBOXYLIC ACID]
TI [2]: ++++ (++++: 2000-4000)

COC1CCC(N(C(=O)C2CCC(C)CC2)c2cc(-c3ccccc3)sc2C(=O)O)CC1 (stereo not shown) [C, reference compound]
TI [2]: + (+: <100)

CC(C)(C)C#Cc1cc(N(C(=O)[C@H]2CC[C@H](C)CC2)[C@H]2CC[C@H](F)CC2)c(C(=O)O)s1 [Compound 9, 5-(3,3-DIMETHYL-BUT-1-YNYL)-3-[(TRANS-4-FLUORO-CYCLOHEXYL)-(TRANS-4-METHYL-CYCLOHEXANECARBONYL)-AMINO]-THIOPHENE-2-CARBOXYLIC ACID]
TI [2]: ++++++ (++++++: >6000)

CC1CCC(C(=O)N(c2cc(C#CC(C)(C)C)sc2C(=O)O)C(C)C)CC1 (stereo not shown) [E, reference compound]
TI [2]: +++ (+++: 1000-2000)

CC1CCC(C(=O)N(c2cc(-c3ccccc3)sc2C(=O)O)C(C)C)CC1 (stereo not shown) [A, reference compound]
TI [2]: ++ (++: 100-1000)

CC1CCC(C(=O)N(c2cc(-c3ccccc3)sc2C(=O)O)C2CCC(n3cncn3)CC2)CC1 (stereo not shown) [G, reference compound]
TI [2]: +++ (+++: 1000-2000)
